Reference: publication PMC8429728, “TNK1 is a ubiquitin-binding and 14-3-3-regulated kinase that can be targeted to block tumor growth” (Nature Communications, 2021)
Read-outs that look alike come from different tables or passages of the source.

Tests used:
Assay in all cases: biochemical
Parameters in all cases: Reaction Biology 371-kinase panel at Km ATP, per cent enzyme activity relative to DMSO, single dose in duplicate
[1] = molecular target: SBK1 (Homo sapiens, UniProt Q52WX2); conditions: duplicate measurements, Km ATP
In short: (§1)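 First, kinases from a 371-member panel were exposed in vitro to 300 nM inhibitor. Next, % enzyme activity versus DMSO was computed. Finally, IC50s were derived by sigmoidal dose-response fitting with variable slope and a zero bottom constraint.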

[2] = molecular target: MLCK/MYLK (Homo sapiens, UniProt Q15746); conditions: duplicate measurements, Km ATP
MLCK/MYLK, sequence (Q15746 whole entry): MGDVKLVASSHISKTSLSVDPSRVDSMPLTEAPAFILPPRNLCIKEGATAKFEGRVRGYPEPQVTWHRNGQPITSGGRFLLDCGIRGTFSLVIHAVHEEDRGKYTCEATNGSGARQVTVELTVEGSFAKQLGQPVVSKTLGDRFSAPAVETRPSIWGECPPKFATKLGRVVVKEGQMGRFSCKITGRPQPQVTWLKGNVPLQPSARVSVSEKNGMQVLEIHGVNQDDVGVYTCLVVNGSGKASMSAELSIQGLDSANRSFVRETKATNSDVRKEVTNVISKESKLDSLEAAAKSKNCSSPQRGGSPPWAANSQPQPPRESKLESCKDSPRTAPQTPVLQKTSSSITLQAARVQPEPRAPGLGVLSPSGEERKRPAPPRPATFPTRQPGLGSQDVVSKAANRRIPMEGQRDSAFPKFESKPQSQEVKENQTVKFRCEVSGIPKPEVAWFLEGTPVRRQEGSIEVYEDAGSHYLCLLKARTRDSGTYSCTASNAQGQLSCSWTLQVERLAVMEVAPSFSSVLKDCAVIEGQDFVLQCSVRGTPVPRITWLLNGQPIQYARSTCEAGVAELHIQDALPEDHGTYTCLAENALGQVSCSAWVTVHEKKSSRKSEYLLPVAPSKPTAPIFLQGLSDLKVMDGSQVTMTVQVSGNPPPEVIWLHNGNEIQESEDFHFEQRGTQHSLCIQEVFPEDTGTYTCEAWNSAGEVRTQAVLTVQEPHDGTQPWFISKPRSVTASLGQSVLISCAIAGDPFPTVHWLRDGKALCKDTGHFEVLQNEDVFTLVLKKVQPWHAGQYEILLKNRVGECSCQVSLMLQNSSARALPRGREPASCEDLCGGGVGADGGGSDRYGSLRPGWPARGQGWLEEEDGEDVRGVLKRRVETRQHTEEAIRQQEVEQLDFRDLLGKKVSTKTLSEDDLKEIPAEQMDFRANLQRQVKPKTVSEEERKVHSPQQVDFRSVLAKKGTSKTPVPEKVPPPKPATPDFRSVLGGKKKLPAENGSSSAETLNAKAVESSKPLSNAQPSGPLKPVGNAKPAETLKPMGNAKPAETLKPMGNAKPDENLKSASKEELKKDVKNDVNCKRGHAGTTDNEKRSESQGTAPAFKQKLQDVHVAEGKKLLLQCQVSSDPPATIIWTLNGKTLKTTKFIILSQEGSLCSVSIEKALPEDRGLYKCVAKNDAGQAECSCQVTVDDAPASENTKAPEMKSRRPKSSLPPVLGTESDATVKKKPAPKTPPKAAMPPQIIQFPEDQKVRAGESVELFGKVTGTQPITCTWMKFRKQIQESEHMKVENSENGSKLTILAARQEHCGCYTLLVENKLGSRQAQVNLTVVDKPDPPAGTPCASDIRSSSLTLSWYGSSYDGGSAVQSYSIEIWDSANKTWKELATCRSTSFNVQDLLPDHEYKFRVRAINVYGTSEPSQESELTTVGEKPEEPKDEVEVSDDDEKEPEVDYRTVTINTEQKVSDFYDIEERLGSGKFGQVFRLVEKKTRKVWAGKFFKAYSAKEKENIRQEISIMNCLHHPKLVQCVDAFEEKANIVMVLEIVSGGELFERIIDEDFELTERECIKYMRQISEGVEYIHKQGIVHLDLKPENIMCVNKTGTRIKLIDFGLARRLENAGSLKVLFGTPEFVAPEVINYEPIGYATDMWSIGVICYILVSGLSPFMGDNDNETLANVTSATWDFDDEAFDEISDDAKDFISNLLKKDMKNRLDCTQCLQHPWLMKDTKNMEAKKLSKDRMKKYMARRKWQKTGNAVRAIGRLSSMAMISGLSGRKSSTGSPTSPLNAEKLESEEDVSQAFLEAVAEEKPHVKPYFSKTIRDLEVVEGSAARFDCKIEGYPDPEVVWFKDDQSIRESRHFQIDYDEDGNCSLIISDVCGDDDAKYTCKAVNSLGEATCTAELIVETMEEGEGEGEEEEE
In short: as §1

[3] = molecular target: ROS/ROS1 (Homo sapiens, UniProt P08922); conditions: duplicate measurements, Km ATP
In short: as §1

[4] = molecular target: GRK2 (Homo sapiens, UniProt P25098); conditions: duplicate measurements, Km ATP
In short: as §1

[5] = molecular target: MST2/STK3 (Homo sapiens, UniProt Q13188); conditions: duplicate measurements, Km ATP
In short: as §1

[6] = molecular target: T1, MEK1 (Homo sapiens, UniProt Q02750); conditions: duplicate measurements, Km ATP
T1 construct: gene MAP2K1
In short: as §1

[7] = molecular target: WNK2 (Homo sapiens, UniProt Q9Y3S1); conditions: duplicate measurements, Km ATP
In short: as §1

[8] = molecular target: LIMK1 (Homo sapiens, UniProt P53667); conditions: duplicate measurements, Km ATP; read-out: % Enzyme Activity (relative to DMSO controls) / TP-0005801 (0.3µM) / Data 1
In short: as §1

[9] = molecular target: NEK9 (Homo sapiens, UniProt Q8TD19); conditions: duplicate measurements, Km ATP
NEK9, sequence (Q8TD19 whole entry): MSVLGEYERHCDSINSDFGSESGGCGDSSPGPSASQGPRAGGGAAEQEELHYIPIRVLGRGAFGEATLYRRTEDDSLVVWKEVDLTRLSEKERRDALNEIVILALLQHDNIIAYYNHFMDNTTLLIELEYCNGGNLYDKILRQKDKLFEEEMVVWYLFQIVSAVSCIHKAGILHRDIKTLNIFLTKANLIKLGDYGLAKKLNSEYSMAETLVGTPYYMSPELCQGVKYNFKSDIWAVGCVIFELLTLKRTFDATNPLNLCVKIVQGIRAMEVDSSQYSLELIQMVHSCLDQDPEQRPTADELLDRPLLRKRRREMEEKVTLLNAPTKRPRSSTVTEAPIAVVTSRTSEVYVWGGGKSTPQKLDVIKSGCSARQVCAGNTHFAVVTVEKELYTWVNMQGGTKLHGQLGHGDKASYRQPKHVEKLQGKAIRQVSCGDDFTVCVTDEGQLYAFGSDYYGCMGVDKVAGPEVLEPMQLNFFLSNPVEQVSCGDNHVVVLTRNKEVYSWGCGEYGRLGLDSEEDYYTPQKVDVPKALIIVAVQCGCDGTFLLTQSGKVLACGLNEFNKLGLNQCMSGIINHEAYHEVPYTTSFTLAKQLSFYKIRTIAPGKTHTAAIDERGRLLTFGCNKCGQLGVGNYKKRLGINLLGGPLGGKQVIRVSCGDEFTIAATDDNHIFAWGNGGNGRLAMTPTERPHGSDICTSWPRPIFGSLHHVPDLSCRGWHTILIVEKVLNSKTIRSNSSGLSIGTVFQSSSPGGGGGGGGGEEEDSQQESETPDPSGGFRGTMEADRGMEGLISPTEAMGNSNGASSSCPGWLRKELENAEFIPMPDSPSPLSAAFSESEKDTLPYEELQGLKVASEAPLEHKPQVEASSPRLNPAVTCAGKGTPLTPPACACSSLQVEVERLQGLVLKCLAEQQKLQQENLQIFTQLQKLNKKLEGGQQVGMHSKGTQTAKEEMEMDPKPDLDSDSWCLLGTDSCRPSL
In short: as §1

[10] = molecular target: STK16 (Homo sapiens, UniProt O75716); conditions: duplicate measurements, Km ATP
STK16, sequence (O75716 whole entry): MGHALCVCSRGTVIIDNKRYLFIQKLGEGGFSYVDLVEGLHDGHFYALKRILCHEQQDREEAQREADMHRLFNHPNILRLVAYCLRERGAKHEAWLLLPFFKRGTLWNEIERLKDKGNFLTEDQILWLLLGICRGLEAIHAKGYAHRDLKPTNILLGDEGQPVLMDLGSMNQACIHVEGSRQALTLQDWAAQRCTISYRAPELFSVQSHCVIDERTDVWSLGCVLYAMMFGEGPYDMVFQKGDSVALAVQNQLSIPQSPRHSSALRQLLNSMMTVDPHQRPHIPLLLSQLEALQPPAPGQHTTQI
In short: as §1

[11] = molecular target: WNK1 (Homo sapiens, UniProt Q9H4A3); conditions: duplicate measurements, Km ATP
In short: as §1

[12] = molecular target: CAMK2d (Homo sapiens, UniProt Q13557); conditions: duplicate measurements, Km ATP
CAMK2d, sequence (Q13557 whole entry): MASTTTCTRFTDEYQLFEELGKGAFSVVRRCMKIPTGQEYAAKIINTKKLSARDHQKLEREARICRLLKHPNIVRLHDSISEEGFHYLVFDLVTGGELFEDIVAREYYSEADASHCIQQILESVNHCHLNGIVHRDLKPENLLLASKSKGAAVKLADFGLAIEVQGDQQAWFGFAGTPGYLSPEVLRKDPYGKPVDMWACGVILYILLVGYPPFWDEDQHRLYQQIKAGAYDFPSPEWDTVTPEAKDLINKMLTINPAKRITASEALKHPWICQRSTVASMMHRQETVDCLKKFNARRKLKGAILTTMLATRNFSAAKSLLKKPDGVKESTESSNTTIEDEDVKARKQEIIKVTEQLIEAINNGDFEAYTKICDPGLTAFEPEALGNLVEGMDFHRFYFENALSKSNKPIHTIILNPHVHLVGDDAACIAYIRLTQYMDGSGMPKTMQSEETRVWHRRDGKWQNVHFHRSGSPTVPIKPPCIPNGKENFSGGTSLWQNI
In short: as §1

[13] = molecular target: BLK (Homo sapiens, UniProt P51451); conditions: duplicate measurements, Km ATP
BLK, sequence (P51451 whole entry): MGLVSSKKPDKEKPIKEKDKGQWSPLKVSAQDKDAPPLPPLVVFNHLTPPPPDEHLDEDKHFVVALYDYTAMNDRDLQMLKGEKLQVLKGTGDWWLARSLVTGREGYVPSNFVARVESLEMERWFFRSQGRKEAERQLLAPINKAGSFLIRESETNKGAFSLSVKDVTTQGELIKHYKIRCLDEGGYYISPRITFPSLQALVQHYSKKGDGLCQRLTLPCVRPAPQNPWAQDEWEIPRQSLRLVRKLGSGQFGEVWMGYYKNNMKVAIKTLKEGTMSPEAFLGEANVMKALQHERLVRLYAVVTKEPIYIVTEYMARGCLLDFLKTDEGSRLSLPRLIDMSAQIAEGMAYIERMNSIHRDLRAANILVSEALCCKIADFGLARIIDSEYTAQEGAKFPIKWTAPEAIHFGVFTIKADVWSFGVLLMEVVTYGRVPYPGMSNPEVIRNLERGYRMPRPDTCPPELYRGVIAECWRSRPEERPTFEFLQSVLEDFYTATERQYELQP
In short: as §1

[14] = molecular target: T2, STK22D/TSSK1 (Homo sapiens, UniProt Q9BXA7); conditions: duplicate measurements, Km ATP
T2 construct: gene TSSK1B
In short: as §1

[15] = molecular target: T3, CK1a1L (Homo sapiens, UniProt Q8N752); conditions: duplicate measurements, Km ATP
T3 construct: gene CSNK1A1L
In short: as §1

[16] = molecular target: GLK/MAP4K3 (Homo sapiens, UniProt Q8IVH8); conditions: duplicate measurements, Km ATP
GLK/MAP4K3, sequence (Q8IVH8 whole entry): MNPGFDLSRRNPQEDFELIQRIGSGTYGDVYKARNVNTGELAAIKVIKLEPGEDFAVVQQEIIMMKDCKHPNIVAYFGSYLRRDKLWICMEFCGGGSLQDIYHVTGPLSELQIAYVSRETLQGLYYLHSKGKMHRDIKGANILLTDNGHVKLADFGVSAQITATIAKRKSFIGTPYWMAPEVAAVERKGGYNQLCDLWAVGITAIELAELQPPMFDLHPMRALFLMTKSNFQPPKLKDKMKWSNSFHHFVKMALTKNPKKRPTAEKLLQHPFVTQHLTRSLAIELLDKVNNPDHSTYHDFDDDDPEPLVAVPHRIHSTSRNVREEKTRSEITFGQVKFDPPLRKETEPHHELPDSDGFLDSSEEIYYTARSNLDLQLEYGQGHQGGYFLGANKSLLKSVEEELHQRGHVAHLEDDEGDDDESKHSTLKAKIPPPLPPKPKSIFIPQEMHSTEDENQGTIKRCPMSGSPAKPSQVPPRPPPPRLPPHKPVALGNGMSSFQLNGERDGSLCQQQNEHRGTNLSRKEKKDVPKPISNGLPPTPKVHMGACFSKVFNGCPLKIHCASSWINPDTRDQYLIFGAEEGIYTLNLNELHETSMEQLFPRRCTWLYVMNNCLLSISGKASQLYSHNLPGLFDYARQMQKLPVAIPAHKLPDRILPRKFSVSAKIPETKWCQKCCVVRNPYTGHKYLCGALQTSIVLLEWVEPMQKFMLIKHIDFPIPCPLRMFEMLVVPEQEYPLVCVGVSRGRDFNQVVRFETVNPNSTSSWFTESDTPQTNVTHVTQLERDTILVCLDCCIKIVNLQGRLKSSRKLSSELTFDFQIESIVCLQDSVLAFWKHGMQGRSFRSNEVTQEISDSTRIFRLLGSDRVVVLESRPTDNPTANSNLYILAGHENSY
In short: as §1

[17] = molecular target: NEK2 (Homo sapiens, UniProt P51955); conditions: duplicate measurements, Km ATP
In short: as §1

[18] = molecular target: SYK (Homo sapiens, UniProt P43405); conditions: duplicate measurements, Km ATP
In short: as §1

[19] = molecular target: PAK2 (Homo sapiens, UniProt Q13177); conditions: duplicate measurements, Km ATP; read-out: % Enzyme Activity (relative to DMSO controls) / TP-0005801 (0.3µM) / Data 1
In short: as §1

[20] = molecular target: MYLK3 (Homo sapiens, UniProt Q32MK0); conditions: duplicate measurements, Km ATP
In short: as §1

[21] = read-out: % Enzyme Activity (relative to DMSO controls) / TP-0005801 (0.3µM) / Data 1
[22] = read-out: % Enzyme Activity (relative to DMSO controls) / TP-0005801 (0.3µM) / Data 2

## COc1cc(N2CCN(C)CC2)c(C)cc1Nc1ncc(Br)c(Nc2cccnc2N(C)C)n1 [TP-5801]
[1]; [21]
  remaining activity at 0.3 µM: 99%
[1]; [22]
  remaining activity at 0.3 µM: 95.5%
[2]; [21]
  remaining activity at 0.3 µM: 93.8%
[2]; [22]
  remaining activity at 0.3 µM: 90.8%
[3]; [21]
  remaining activity at 0.3 µM: 10.1%
[3]; [22]
  remaining activity at 0.3 µM: 9.96%
[4]; [21]
  remaining activity at 0.3 µM: 93%
[4]; [22]
  remaining activity at 0.3 µM: 91.7%
[5]; [21]
  remaining activity at 0.3 µM: 97.7%
[5]; [22]
  remaining activity at 0.3 µM: 97.5%
[6]; [21]
  remaining activity at 0.3 µM: 95.7%
[6]; [22]
  remaining activity at 0.3 µM: 95.5%
[7]; [21]
  remaining activity at 0.3 µM: 96.6%
[7]; [22]
  remaining activity at 0.3 µM: 93.9%
[8]
  remaining activity at 0.3 µM: 104%
[9]; [21]
  remaining activity at 0.3 µM: 69.6%
[9]; [22]
  remaining activity at 0.3 µM: 68.6%
[10]; [21]
  remaining activity at 0.3 µM: 107%
[10]; [22]
  remaining activity at 0.3 µM: 105%
[11]; [21]
  remaining activity at 0.3 µM: 108%
[11]; [22]
  remaining activity at 0.3 µM: 104%
[12]; [21]
  remaining activity at 0.3 µM: 4.74%
[12]; [22]
  remaining activity at 0.3 µM: 4.45%
[13]; [21]
  remaining activity at 0.3 µM: 88.3%
[13]; [22]
  remaining activity at 0.3 µM: 87.5%
[14]; [21]
  remaining activity at 0.3 µM: 10.4%
[14]; [22]
  remaining activity at 0.3 µM: 8.14%
[15]; [21]
  remaining activity at 0.3 µM: 101%
[15]; [22]
  remaining activity at 0.3 µM: 99.8%
[16]; [21]
  remaining activity at 0.3 µM: 35%
[16]; [22]
  remaining activity at 0.3 µM: 34.3%
[17]; [21]
  remaining activity at 0.3 µM: 60.3%
[17]; [22]
  remaining activity at 0.3 µM: 55.8%
[18]; [21]
  remaining activity at 0.3 µM: 77.6%
[18]; [22]
  remaining activity at 0.3 µM: 77.5%
[19]
  remaining activity at 0.3 µM: 104%
[20]; [21]
  remaining activity at 0.3 µM: 110%
[20]; [22]
  remaining activity at 0.3 µM: 109%
